TGI data for seven molecules are collected here from PubChem BioAssay (NCI).

Test systems include COLO 205 colon; DLD-1 colon; HCT-15 colon; HOP-62 NSCLC; HT29 colon; LOX IMVI melanoma; MOLT-4 leukemia; NCI-H522 lung; OVCAR-8 ovarian; SK-MEL-28 melanoma; SK-MEL-5 melanoma; SK-OV-3 ovarian; SNB-19 CNS; SR leukemia; SW-620 colon; TK-10 renal; UACC-257 melanoma; UACC-62 melanoma; BT-549 breast; MDA-MB-435.
Experiment in all cases: DTP human tumour cell line panel, 48 h

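Step 1: Grow cells in 96-well plates. Step 2: Expose to compound for 48 hours at 5 concentrations. Step 3: Interpolate endpoints linearly; if unreached, use highest concentration. TGI denotes the concentration required for complete inhibition of growth.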

What is called TGI is the concentration at which net growth stops. Read a low TGI as more potent growth arrest. As for `CN(C(=O)C12C3C4C1C1C4(C(=O)C45C6C7C4C4C5C6C74C)C3C12C)C(C)(C)C` (centres undefined), the TGI with COLO 205 colon was above 100 µM; with DLD-1 colon, above 100 µM; in the test with HCT-15 colon it was above 100 µM; in the test with HOP-62 NSCLC it was above 100 µM; in the test on HT29 colon it was 35.1 µM; with LOX IMVI melanoma it was above 100 µM. The concentration for total growth inhibition (TGI) is above 100 µM with MOLT-4 leukemia; above 100 µM with NCI-H522 lung; above 100 µM in the test with OVCAR-8 ovarian; above 100 µM with SK-MEL-28 melanoma; 81.7 µM in the test with SK-MEL-5 melanoma; above 100 µM with SK-OV-3 ovarian. Further, the TGI in the test with SNB-19 CNS, with SR leukemia, with SW-620 colon, in the test on TK-10 renal, in the test with UACC-257 melanoma and in the test with UACC-62 melanoma was above 100 µM throughout.

For `CCN=C(NNc1ccc([N+](=O)[O-])cc1)P(=O)(OC(C)C)OC(C)C`, the TGI in the test on COLO 205 colon, in the test on DLD-1 colon, with HCT-15 colon, in the test with HOP-62 NSCLC, in the test with LOX IMVI melanoma and with MOLT-4 leukemia was above 100 µM in each case. The concentration for total growth inhibition (TGI) in the test on NCI-H522 lung, with OVCAR-8 ovarian, in the test with SK-MEL-28 melanoma, with SK-MEL-5 melanoma, with SNB-19 CNS and in the test with SR leukemia was above 100 µM each time. Further, the total growth inhibition concentration (TGI) with SW-620 colon, in the test on TK-10 renal, in the test with UACC-257 melanoma and in the test with UACC-62 melanoma was above 100 µM throughout.

On to `COc1ccc(C(=O)Cc2c(C(=O)c3ccccc3)c3ccccc3n2C(=O)c2ccccc2)cc1`, for which the TGI in the test with COLO 205 colon, in the test with DLD-1 colon, in the test on HCT-15 colon, in the test on HOP-62 NSCLC, with HT29 colon and with MOLT-4 leukemia was above 100 µM each time. Further, the TGI with NCI-H522 lung is above 100 µM; in the test with OVCAR-8 ovarian, above 100 µM; in the test with SK-MEL-28 melanoma it was above 100 µM; in the test with SK-MEL-5 melanoma it was 64.3 µM; with SNB-19 CNS, above 100 µM; with SR leukemia it was above 100 µM. For the same molecule, the TGI in the test on SW-620 colon, in the test with TK-10 renal, in the test on UACC-257 melanoma and in the test on UACC-62 melanoma was above 100 µM throughout.

As for `COC(=O)N1CCc2c(nc(N(C)CCO)[nH]c2=O)C1`, the TGI with COLO 205 colon, with DLD-1 colon, in the test with HCT-15 colon, with HOP-62 NSCLC, with HT29 colon and with LOX IMVI melanoma was above 100 µM in each case. The TGI in the test with MOLT-4 leukemia, with NCI-H522 lung, in the test with OVCAR-8 ovarian, in the test with SK-MEL-28 melanoma, in the test with SK-MEL-5 melanoma and in the test with SK-OV-3 ovarian was above 100 µM each time. The concentration for total growth inhibition (TGI) in the test on SNB-19 CNS, in the test with SR leukemia, in the test with SW-620 colon, in the test with TK-10 renal, with UACC-257 melanoma and in the test on UACC-62 melanoma was above 100 µM in each case.

`CCCCCCCCCc1cc(-c2ccc(C=O)s2)sc1-c1ccc(C=O)s1`: the TGI is above 93.6 µM with BT-549 breast; above 31.6 µM in the test with COLO 205 colon; above 72.7 µM in the test with HCT-15 colon; 74.8 µM with HOP-62 NSCLC; above 100 µM with HT29 colon; 37 µM in the test on LOX IMVI melanoma. Besides, the total growth inhibition concentration (TGI) in the test on MDA-MB-435 is above 100 µM; in the test on MOLT-4 leukemia, 10.5 µM; with NCI-H522 lung, 45.6 µM; in the test with OVCAR-8 ovarian it was above 59 µM; in the test with SK-MEL-28 melanoma, above 100 µM; with SK-MEL-5 melanoma, 34.6 µM. Also, the TGI with SK-OV-3 ovarian was 67.2 µM; in the test with SNB-19 CNS it was above 87.1 µM; in the test on SR leukemia it was 26.9 µM; in the test on SW-620 colon, above 100 µM; in the test with TK-10 renal it was 34.7 µM; in the test with UACC-257 melanoma it was 30.8 µM. The molecule also yielded a TGI in the test on UACC-62 melanoma of 23.7 µM.

As for `Nc1ccc2nc(Nc3ccc(F)cc3)cnc2c1`, the TGI in the test on COLO 205 colon, with DLD-1 colon, in the test with HCT-15 colon, with HOP-62 NSCLC, in the test on HT29 colon and in the test on LOX IMVI melanoma was above 100 µM in each case. The TGI in the test with MOLT-4 leukemia, with NCI-H522 lung, in the test with OVCAR-8 ovarian, in the test on SK-MEL-28 melanoma, with SK-MEL-5 melanoma and in the test on SNB-19 CNS was above 100 µM each time. In addition, the TGI in the test on SR leukemia, in the test with SW-620 colon, in the test on TK-10 renal and in the test on UACC-257 melanoma was above 100 µM in each case.

For the molecule `CSc1nc(Cl)c(Br)c(Sc2nc(N)nc3nc[nH]c23)n1`, the concentration for total growth inhibition (TGI) turned out to be 33.8 µM in the test with COLO 205 colon; 24.4 µM with DLD-1 colon; 21.2 µM in the test on HCT-15 colon; 8.69 µM in the test with HOP-62 NSCLC; 36.8 µM in the test on HT29 colon; 18.9 µM in the test with MOLT-4 leukemia. Further, the TGI in the test with NCI-H522 lung amounted to 3.45 µM; in the test on OVCAR-8 ovarian, 41.9 µM; in the test on SK-MEL-28 melanoma it was 24 µM; with SK-MEL-5 melanoma, 26.4 µM; with SNB-19 CNS, 30.2 µM; in the test on SR leukemia it was 14.1 µM. The TGI amounted to 25.3 µM with SW-620 colon, 20.9 µM in the test on TK-10 renal, 30 µM in the test with UACC-257 melanoma and 14.2 µM with UACC-62 melanoma.
